Experiments:
A549 cells = test: A549 proliferation (viability) assay, Cell Titer Fluor, 72 hours; assay type: cell-based; conditions: Homo sapiens
In short: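 A549 cells seeded at 1000 cells/well, left 24 h, then exposed to compound for 72 h at 37 °C, 5% CO2, final DMSO 0.5% (v/v). Viability read by Cell Titer Fluor fluorescence; EC50 from four-parameter logistic fit.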

[1] = target: T1, GLS1 (purified recombinant human GAC) (Homo sapiens, UniProt O94925); test: GLS1 enzymatic activity assay (dual-coupled, Amplex UltraRed/resorufin); assay type: biochemical
T1 sequence (O94925 55-598 isoform O94925-3 limits assumed): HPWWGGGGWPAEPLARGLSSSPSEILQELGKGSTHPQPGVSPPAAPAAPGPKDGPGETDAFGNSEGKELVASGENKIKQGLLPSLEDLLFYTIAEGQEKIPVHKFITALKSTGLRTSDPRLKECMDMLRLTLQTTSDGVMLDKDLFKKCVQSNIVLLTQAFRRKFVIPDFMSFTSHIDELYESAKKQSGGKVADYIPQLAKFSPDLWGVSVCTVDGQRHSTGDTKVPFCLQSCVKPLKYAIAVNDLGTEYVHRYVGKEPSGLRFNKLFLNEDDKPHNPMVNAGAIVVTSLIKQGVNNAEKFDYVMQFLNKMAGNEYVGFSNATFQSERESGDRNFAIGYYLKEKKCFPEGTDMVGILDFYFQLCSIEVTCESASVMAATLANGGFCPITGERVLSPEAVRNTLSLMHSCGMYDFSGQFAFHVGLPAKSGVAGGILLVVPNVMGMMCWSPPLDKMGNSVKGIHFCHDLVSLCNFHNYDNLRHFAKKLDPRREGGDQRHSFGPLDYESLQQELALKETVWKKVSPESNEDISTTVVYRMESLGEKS
In short: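 GAC activity measured by coupling glutamate to glutamate oxidase and HRP, generating resorufin from Amplex UltraRed. Enzyme (2 nM) preincubated with 50 mM potassium phosphate 10 min at room temperature, then inhibitor 10 min; 1 mM glutamine substrate, 1% DMSO. Fluorescence 530/590 nm, kinetic or 20-min endpoint; IC50 from four-parameter logistic fit.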

SMILES | EC50 (A549 cells) [nM] | IC50 [1] [nM]
Cc1ccc(CNC(=O)c2cn(CC(F)CCn3ccc(NC(=O)Cc4ccccc4)cc3=O)nn2)cn1 (stereo not shown) [Example 150, 1-{2-fluoro-4-[2-oxo-4-(2-phenylacetamido)-1,2-dihydropyridin-1-yl]butyl}-N-[(6-methylpyridin-3-yl)methyl]-1H-1,2,3-triazole-4-carboxamide] | > 5000 | 100 to 500
O=C(Cc1ccccc1)Nc1ccn(CCC(F)Cn2cc(C(=O)NCc3ncccc3F)nn2)c(=O)c1 (stereo not shown) [Example 151, 1-{2-fluoro-4-[2-oxo-4-(2-phenylacetamido)-1,2-dihydropyridin-1-yl]butyl}-N-[(3-fluoropyridin-2-yl)methyl]-1H-1,2,3-triazole-4-carboxamide] | 500 to 5000 | 100 to 500
O=C(NCc1cccc(C(F)(F)F)c1)c1cn(CCCCn2ccc(NC(=O)C3CCCCC3)cc2=O)nn1 [Example 152, 1-[4-(4-cyclohexaneamido-2-oxo-1,2-dihydropyridin-1-yl)butyl]-N-{[3-(trifluoromethyl)phenyl]methyl}-1H-1,2,3-triazole-4-carboxamide] | 100 to 500 | < 100
O=C(CC1CCCC1)Nc1ccn(CCCCn2cc(C(=O)NCc3cccc(C(F)(F)F)c3)nn2)c(=O)c1 [Example 153, 1-{4-[4-(2-cyclopentylacetamido)-2-oxo-1,2-dihydropyridin-1-yl]butyl}-N-{[3-(trifluoromethyl)phenyl]methyl}-1H-1,2,3-triazole-4-carboxamide] | < 100 | < 100
O=C(Cn1ccccc1=O)Nc1ccn(CCCCn2cc(C(=O)NCc3cccc(C(F)(F)F)c3)nn2)c(=O)c1 [Example 157, 1-(4-{2-oxo-4-[2-(2-oxo-1,2-dihydropyridin-1-yl)acetamido]-1,2-dihydropyridin-1-yl}butyl)-N-{[3-(trifluoromethyl)phenyl]methyl}-1H-1,2,3-triazole-4-carboxamide] | > 5000 | 500 to 5000
Cc1ccc(CNC(=O)c2cn(CCCCn3ccc(NC(=O)Cc4ccccc4)cc3=O)nn2)cn1 [Example 158, N-[(6-methylpyridin-3-yl)methyl]-1-{4-[2-oxo-4-(2-phenylacetamido)-1,2-dihydropyridin-1-yl]butyl}-1H-1,2,3-triazole-4-carboxamide] | 500 to 5000 | < 100
Cc1ccc(CNC(=O)c2cn(CCCCn3ccc(NC(=O)C4CCCC4)cc3=O)nn2)cn1 [Example 159, 1-[4-(4-cyclopentaneamido-2-oxo-1,2-dihydropyridin-1-yl)butyl]-N-[(6-methylpyridin-3-yl)methyl]-1H-1,2,3-triazole-4-carboxamide] | 500 to 5000 | 100 to 500
Cc1cccc(CNC(=O)c2cn(CCC(F)Cn3ccc(NC(=O)Cc4ccccc4)cc3=O)nn2)n1 (stereo not shown) [Example 162, 1-{3-fluoro-4-[2-oxo-4-(2-phenylacetamido)-1,2-dihydropyridin-1-yl]butyl}-N-[(6-methylpyridin-2-yl)methyl]-1H-1,2,3-triazole-4-carboxamide] | 500 to 5000 | < 100
O=C(Cc1ccccc1)Nc1ccn(CCC(F)Cn2cc(C(=O)NCc3cc(C(F)(F)F)ccn3)nn2)c(=O)c1 (stereo not shown) [Example 164, 1-{2-fluoro-4-[2-oxo-4-(2-phenylacetamido)-1,2-dihydropyridin-1-yl]butyl}-N-{[4-(trifluoromethyl)pyridin-2-yl]methyl}-1H-1,2,3-triazole-4-carboxamide] | 100 to 500 | < 100
O=C(NCc1cccc(OC(F)(F)F)c1)c1cn(CCCCn2ccc(NC(=O)C(F)c3ccccc3)cc2=O)nn1 (stereo not shown) [Example 167, 1-{4-[4-(2-fluoro-2-phenylacetamido)-2-oxo-1,2-dihydropyridin-1-yl]butyl}-N-{[3-(trifluoromethoxy)phenyl]methyl}-1H-1,2,3-triazole-4-carboxamide] | < 100 | < 100
O=C(CC1CC1(F)F)Nc1ccn(CCCCn2cc(C(=O)NCc3cccc(OC(F)(F)F)c3)nn2)c(=O)c1 (stereo not shown) [Example 168, 1-(4-{4-[2-(2,2-difluorocyclopropyl)acetamido]-2-oxo-1,2-dihydropyridin-1-yl}butyl)-N-{[3-(trifluoromethoxy)phenyl]methyl}-1H-1,2,3-triazole-4-carboxamide] | 500 to 5000 | < 100
O=C(CC1CCSCC1)Nc1ccn(CCCCn2cc(C(=O)NCc3cccc(OC(F)(F)F)c3)nn2)c(=O)c1 [Example 169, 1-(4-{2-oxo-4-[2-(thian-4-yl)acetamido]-1,2-dihydropyridin-1-yl}butyl)-N-{[3-(trifluoromethoxy)phenyl]methyl}-1H-1,2,3-triazole-4-carboxamide] | 100 to 500 | < 100
COC1CCC(CC(=O)Nc2ccn(CCCCn3cc(C(=O)NCc4cccc(OC(F)(F)F)c4)nn3)c(=O)c2)CC1 (stereo not shown) [Example 170, 1-(4-{4-[2-(4-methoxycyclohexyl)acetamido]-2-oxo-1,2-dihydropyridin-1-yl}butyl)-N-{[3-(trifluoromethoxy)phenyl]methyl}-1H-1,2,3-triazole-4-carboxamide] | 100 to 500 | < 100

Further lines, results first:

EC50 (A549 cells) [nM] | IC50 [1] [nM] | SMILES
500 to 5000 | < 100 | O=C(CC1CC1)Nc1ccn(CCCCn2cc(C(=O)NCc3cccc(C(F)(F)F)c3)nn2)c(=O)c1 [Example 154, 1-{4-[4-(2-cyclopropylacetamido)-2-oxo-1,2-dihydropyridin-1-yl]butyl}-N-{[3-(trifluoromethyl)phenyl]methyl}-1H-1,2,3-triazole-4-carboxamide]
> 5000 | 100 to 500 | O=C(CN1CCCC1=O)Nc1ccn(CCCCn2cc(C(=O)NCc3cccc(C(F)(F)F)c3)nn2)c(=O)c1 [Example 155, 1-(4-{2-oxo-4-[2-(2-oxopyrrolidin-1-yl)acetamido]-1,2-dihydropyridin-1-yl}butyl)-N-{[3-(trifluoromethyl)phenyl]methyl}-1H-1,2,3-triazole-4-carboxamide]
500 to 5000 | 100 to 500 | CCN1CCC(CC(=O)Nc2ccn(CCCCn3cc(C(=O)NCc4cccc(C(F)(F)F)c4)nn3)c(=O)c2)CC1 [Example 156, 1-(4-{4-[2-(1-ethylpiperidin-4-yl)acetamido]-2-oxo-1,2-dihydropyridin-1-yl}butyl)-N-{[3-(trifluoromethyl)phenyl]methyl}-1H-1,2,3-triazole-4-carboxamide]
500 to 5000 | < 100 | O=C(Cc1ccccc1)Nc1ccn(CC(F)CCn2cc(C(=O)NCc3cc(Br)ccn3)nn2)c(=O)c1 (stereo not shown) [Example 160, N-[(4-bromopyridin-2-yl)methyl]-1-{3-fluoro-4-[2-oxo-4-(2-phenylacetamido)-1,2-dihydropyridin-1-yl]butyl}-1H-1,2,3-triazole-4-carboxamide]
100 to 500 | < 100 | O=C(Cc1ccccc1)Nc1ccn(CC(F)CCn2cc(C(=O)NCc3cc(C(F)(F)F)ccn3)nn2)c(=O)c1 (stereo not shown) [Example 161, 1-{3-fluoro-4-[2-oxo-4-(2-phenylacetamido)-1,2-dihydropyridin-1-yl]butyl}-N-{[4-(trifluoromethyl)pyridin-2-yl]methyl}-1H-1,2,3-triazole-4-carboxamide]
100 to 500 | < 100 | O=C(Cc1ccccc1)Nc1ccn(CCC(F)Cn2cc(C(=O)NCc3cc(Br)ccn3)nn2)c(=O)c1 (stereo not shown) [Example 163, N-[(4-bromopyridin-2-yl)methyl]-1-{2-fluoro-4-[2-oxo-4-(2-phenylacetamido)-1,2-dihydropyridin-1-yl]butyl}-1H-1,2,3-triazole-4-carboxamide]
500 to 5000 | < 100 | Cc1cccc(CNC(=O)c2cn(CC(F)CCn3ccc(NC(=O)Cc4ccccc4)cc3=O)nn2)n1 (stereo not shown) [Example 165, 1-{2-fluoro-4-[2-oxo-4-(2-phenylacetamido)-1,2-dihydropyridin-1-yl]butyl}-N-[(6-methylpyridin-2-yl)methyl]-1H-1,2,3-triazole-4-carboxamide]
< 100 | < 100 | O=C(CC1CCC(F)(F)CC1)Nc1ccn(CCCCn2cc(C(=O)NCc3cccc(OC(F)(F)F)c3)nn2)c(=O)c1 [Example 166, 1-(4-{4-[2-(4,4-difluorocyclohexyl)acetamido]-2-oxo-1,2-dihydropyridin-1-yl}butyl)-N-{[3-(trifluoromethoxy)phenyl]methyl}-1H-1,2,3-triazole-4-carboxamide]
500 to 5000 | 100 to 500 | O=C(Cc1ccccc1)Nc1cnn(CCCCn2cc(C(=O)NCc3cccc(OC(F)(F)F)c3)nn2)c(=O)c1 [Example 172, 1-{4-[6-oxo-4-(2-phenylacetamido)-1,6-dihydropyridazin-1-yl]butyl}-N-{[3-(trifluoromethoxy)phenyl]methyl}-1H-1,2,3-triazole-4-carboxamide]
< 100 | < 100 | O=C(Cc1ccccc1)Nc1ccn(CCCCn2cc(C(=O)NCc3cccc(OC(F)(F)F)c3)nn2)c(=O)c1F [Example 173, 1-{4-[3-fluoro-2-oxo-4-(2-phenylacetamido)-1,2-dihydropyridin-1-yl]butyl}-N-{[3-(trifluoromethoxy)phenyl]methyl}-1H-1,2,3-triazole-4-carboxamide]

From patent US20160002204A1 (Board of Regents, The University of Texas System, priority 2014, published 2016)
